From paper PMC11599599, “Synthesis, characterization, molecular docking, pharmacokinetics, and molecular dynamics of new bis-thiazoles based on bis-thiosemicarbazone as anti-coxsackievirus” (Scientific Reports, 2024)

Assays:
Assay type in all cases: cell-based
[1] = test system: Vero cells; experiment: Cytotoxicity assay on Vero cells (microscopic morphology); parameters: key to Cytotoxicity on Vero cells (cell sheet affected): -: Safe concentration; + 1, +2, + 3, +4: about 25, 50, 75, 100% of cell sheet was affected respectively; + 1, +2, + 3, +4: about 25, 50, 75, 100% of cell sheet was affected respectively; + 1, +2, + 3, +4: about 25, 50, 75, 100% of cell sheet was affected respectively; + 1, +2, + 3, +4: about 25, 50, 75, 100% of cell sheet was affected respectively; M: masked (color of compounds made cells unseen); details: for Cytotoxicity on Vero cells (cell sheet affected): 24 h, morphological changes
Experimental: (§1) Compounds: 10 mg were dissolved in 1 mL (10% DMSO and 90% deionized water), sterilized by 1% antibiotic–antimycotic mixture and stored in −20.
(§2) Cells: Vero cell line was used. The cells were propagated in DMEM medium (Lonza, USA) supplemented with 10% fetal bovine serum (Gibco, USA), 1% antibiotic–antimycotic mixture (Lonza, USA).
Cytotoxic effect of compounds was measured by inoculation different doses of compounds on tested cells then examining them microscopically after 24 h to determine any morphological changes that appeared on cells as a result of being subjected to the compounds[46]. Vero cells were seeded onto 96-well plates, which were then incubated for the whole night. After a 24-hour incubation period at 37 °C in a humidified incubator with 5% CO2, compounds were injected at concentrations of 10, 20, 30, 40, 50, 60, 70, 80, 90, and 100 µg /100 µl. Any morphological changes were monitored under a microscope.

[2] = test system: Cox B virus; experiment: Plaque reduction assay against Cox B virus
Experimental: as §1, §2
Virus: Cox B virus was propagated and titrated to give final count of 0.9 × 10^5 viral particle/mL.
This test was done according to Tebas et al.[47], In a 12-well plate Vero cells (10^5 cells/mL) were cultivated for 1 day at 37 °C. The Cox B virus was mixed with the safe concentration of the compound and incubated for 1 h at 37 °C before being added to the cells. Following the removal of the growth media, the cells were injected with virus-extract combinations ([…]) and then rinsed with PBS (Phosphate Buffer Saline). Following a one-hour contact period for virus adsorption, the cell monolayer was supplemented with one milliliter of Dulbecco’s Modified Eagles Media (DMEM) containing 2% agarose. The plates were then allowed to solidify and incubated at 37 °C until the development of viral plaques. Formalin (10%) was added for 2 h then plates were stained with crystal violet. Control wells were included where untreated virus was incubated with Vero cells and finally plaques were counted and percentage reduction in plaques formation in comparison to control wells was recorded as following:
% inhibition = (viral count(untreated) - viral count(treated))/viral count(untreated)X100.

[3] = test system: Cox B virus; experiment: Mechanism of virus inhibition: virucidal; details: for Viral count (treated): Virucidal, control 1.6 × 10^7
Experimental: For a compound having an antiviral effect, this might be due to the effect on viral replication, the effect on viral adsorption, or the direct effect on the viral particle. Virucidal[50] the assay was conducted in a 6-well plate with Vero cells that were cultured for two days at 37 °C (10^5 cells/mL). A volume of […] serum-free DMEM containing 1.5 × 10^2 PFU from Cox B was added to the concentration of the compound resulting in viral inhibition, after 1 h incubation, The mixture was diluted three times using serum-free media, which leaves almost no extract but still permits the existence of virus particles to develop on Vero cells. 100 mL of each dilution was then introduced to the Vero cell monolayer. The DMEM overlayer was added to the cell monolayer after a one-hour contact period. The plates were left to solidify then incubated till the appearance of plaques.

[4] = test system: Cox B virus; experiment: Mechanism of virus inhibition: viral adsorption; details: for Viral count (treated): Adsorption, control 1.6 × 10^7
Experimental: (§3) For a compound having an antiviral effect, this might be due to the effect on viral replication, the effect on viral adsorption, or the direct effect on the viral particle.
Viral adsorption[49] Vero cells were cultivated in a 6-well plate (10^5 cells/mL) for 1 day at 37 °C. The compound was applied at different concentrations in […] medium without supplements and coincubated with the cells for 2 h at 4 °C. The virus was coincubated with the pretreatment cells for one hour after the unadsorbed extract was eliminated by washing the cells three times in PBS. Next, 2 mL of DMEM supplemented with 2% agarose were added. The plates were left to solidify and incubated till the appearance of plaques.

[5] = test system: Cox B virus; experiment: Mechanism of virus inhibition: viral replication; details: for Viral count (treated): Replication, control 1.6 × 10^7
Experimental: as §3
Viral replication[48] Assay was carried out in a 6-well plate where Vero cells were cultivated (10^5 cells/ml) for 1 day at 37 °C. The cells were directly inoculated with the virus. After an hour of incubation, unadsorbed viral particles were eliminated by repeatedly washing the cells with PBS.
The compound was applied at different concentrations, and after 1 h contact time, 2 mL of DMEM medium supplemented with 2% agarose were added to the cell monolayer. Plates were left to solidify then incubated till the appearance of plaques.

COc1ccc(OC)c(C=C2/C(=N/Nc3nc(C)c(/N=N/c4ccccc4)s3)c3ccccc3/C2=N\Nc2nc(C)c(/N=N/c3ccccc3)s2)c1 [7a, 2,2’-(((1E,3E)−2-(2,5-dimethoxybenzylidene)−1H-indene-1,3(2H)-diylidene)bis(hydrazin-1-yl-2-ylidene))bis(4-methyl-5-((E)-phenyldiazenyl)thiazole)]
Cytotoxicity on Vero cells (cell sheet affected) ([1]; 10 µg/100µl): -
Cytotoxicity on Vero cells (cell sheet affected) ([1]; 20 µg/100µl): -
Cytotoxicity on Vero cells (cell sheet affected) ([1]; 30 µg/100µl): -
Cytotoxicity on Vero cells (cell sheet affected) ([1]; 40 µg/100µl): -
Cytotoxicity on Vero cells (cell sheet affected) ([1]; 50 µg/100µl): -
Cytotoxicity on Vero cells (cell sheet affected) ([1]; 70 µg/100µl): M
Cytotoxicity on Vero cells (cell sheet affected) ([1]; 80 µg/100µl): M
Cytotoxicity on Vero cells (cell sheet affected) ([1]; 90 µg/100µl): M
Cytotoxicity on Vero cells (cell sheet affected) ([1]; 100 µg/100µl): M
Safety effect on Vero cells (in words) ([1]; Table 1, 24 h): dense and coloured that made masking to the cell sheet
Viral count (treated) ([2]; 20 ug/mL): 0.54 × 10 ^7
Viral count (treated) ([2]; 40 ug/mL): 0 × 10 ^7
inhibition at 20 µg/mL ([2]; Vero): 66%
inhibition at 40 µg/mL ([2]; Vero): 100%
Antiviral activity against Cox B virus (in words) ([2]; at tested concentrations): high viral inhibition
inhibition at 20 µg/mL [3]: 0%
inhibition at 40 µg/mL [3]: 12%
inhibition at 60 µg/mL [3]: 37%
Viral count (treated) ([3]; 20 µg/ml): 1.6 × 10^7
Viral count (treated) ([3]; 40 µg/ml): 1.4 × 10^7
Viral count (treated) ([3]; 60 µg/ml): 1 × 10^7
Effect on viral adsorption (in words) [4]: inhibiting both viral adsorption and replication
inhibition at 20 µg/mL [4]: 42%
inhibition at 40 µg/mL [4]: 57%
inhibition at 60 µg/mL [4]: 85%
Viral count (treated) ([4]; 20 µg/ml): 0.92 × 10^7
Viral count (treated) ([4]; 40 µg/ml): 0.68 × 10^7
Viral count (treated) ([4]; 60 µg/ml): 0.24 × 10^7
Effect on viral replication (in words) [5]: inhibiting both viral adsorption and replication
inhibition at 20 µg/mL [5]: 37%
inhibition at 40 µg/mL [5]: 48%
inhibition at 60 µg/mL [5]: 56%
Viral count (treated) ([5]; 20 µg/ml): 1 × 10^7
Viral count (treated) ([5]; 40 µg/ml): 0.8 × 10^7
Viral count (treated) ([5]; 60 µg/ml): 0.7 × 10^7
